Experimental data from patent US20250230138A1, “COMPOUNDS HAVING A T-STRUCTURE FORMED BY AT LEAST FOUR CYCLES FOR USE IN THE TREATMENT OF CANCER AND OTHER INDICATIONS” (TheRas, Inc., priority 2022, published 2025).
Where two headings read alike, the source gives them in different places.

Experiments:
[1] = biological target: Cys242 in human PIK3CA (157-299) (Homo sapiens (Human), UniProt P42336); experiment: Covalent modification assay using MALDI-TOF MS; assay type: biochemical; settings: 4 h reaction time point
Sequence of Cys242 in human PIK3CA (157-299) (P42336 157-299): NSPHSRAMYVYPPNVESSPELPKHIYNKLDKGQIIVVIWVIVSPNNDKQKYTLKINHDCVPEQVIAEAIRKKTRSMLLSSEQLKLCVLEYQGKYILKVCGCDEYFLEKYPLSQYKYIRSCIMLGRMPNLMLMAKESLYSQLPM
Method: Matrix-Assisted Laser Desorption Ionization-Time of Flight Mass Spectrometry (MALDI-TOF MS) analysis of covalent modification of Cys242 in human PIK3CA (157-299) was performed.
Reaction: 3.33 μM or 1 μM of PIK3CA (157-299) protein (produced in-house by Protein Expression Laboratory, FNLCR/Leidos Biomed) in 20 mM HEPES buffer containing 150 mM NaCl, 2 mM MgCl2, pH 7.3 was prepared freshly before assay. Twelve-μL aliquots of protein were dispensed onto low volume 384-well plate, then 470 nL DMSO and 30 nL of tested compounds from 10 mM DMSO stocks were added to appropriate wells using ECHO 555 acoustic liquid handler (Labcyte Inc.). For each reaction/assay, three blanks were prepared by mixing 12 μL of protein solution with 500 nL DMSO. The wells content was carefully mixed by aspiration, and then the plate was sealed by an adhesive cover, centrifuged at 931 g for 1 minute, and kept in the dark at room temperature until 15 min, 30 min, 2 h, or 4 h collections.
Targetpretreatment: Before each assay MALDI target (Bruker MPT 384 ground steel BC) was pre-treated by pipetting on each spot 0.75 μL of saturated sinapinic acid in acetonitrile (ACN).
Sample preparation: At collection time point, 2 μL of reaction mixtures were pipetted out into […] MALDI matrix solution (saturated solution of sinapinic acid in 1:1 ACN:water solution containing 0.15% trifluoroacetic acid (TFA)) deposited on 384 well polypropylene plate. The resulting solution was mixed by aspiration, centrifuged at 931 g for 1 minute, then 1.5 μL aliquots were dispensed on pre-treated MALDI target using Beckman Coulter Biomek FX^P 96/384-Span-8 Laboratory Automation Workstation. Finally, the MALDI target was dried under a mild vacuum to produce spots with a fine crystalline structure.
Measurements: MALDI-TOF measurements were performed on Bruker Daltonics rapifleX Tissuetyper TOF-TOF mass spectrometer using linear mode and mass ranging from 16.0 to 19.6 kDa. Detector gain was set to 0.64×(459 V), sample rate to 5 GS/s, real-time smoothing to medium (175 MHz), laser smart beam pattern was set to “Custom” single smartbeam beam scan with a scan range of 40 μm on both X and Y axis, and the laser frequency was 10000 Hz. Spectra were automatically collected using the custom AutoXecute method. Laser power was auto adjusted using fuzzy control. The peak selection range was set to be between 16.0 and 18.5 kDa. Peak evaluation uses a half-width parameter set to be smaller than 40 Da for processed spectrograms (centroid peak detection; smoothed by SavitzkyGolay algorithm using 7 m/z width and 2 cycles; baseline was subtracted using a median algorithm with flatness 1 and median level 0). Fuzzy control used Proteins/Oligonucleotides protocol with minimum half-width 1/10 times above threshold. Up to 40000 satisfactory shots were collected in 10000 short steps. Dynamic termination was implemented to finish data collection when the peak signal/noise ratio was reaching a value of 1000.
Spectra processing: Spectra were smoothed by SavitzkyGolay algorithm using 7 m/z width and three cycles. Centroid peak detection algorithm was used with signal to noise threshold set to 6, relative intensity threshold 3%, peak width 10 m/z, and median baseline subtraction using flatness of 1 and the median level of 0.1. Peak intensity and area under the peak were evaluated and recorded for all peaks between 16.0 and 19.5 kDa.
Calculation of percent modification: Percent modification was calculated as a ratio of peak height for protein modified by compound to the sum of the peak height of remaining protein plus peak height for protein modified by a compound. If multiple modifications were observed each was calculated as a ratio of peak height for given modification versus the sum of peak heights for all observed protein species.

pAKT in BT474 cells = experiment: Cell-based pAKT HTRF assay in BT474 cells; settings: BT474 cells, 4 hr incubation, read-out: pAKT inhibition IC50 in BT474 cells
Method: On Day 1, cells were seeded into 96-well plates at 2.5×10^4 cells/well in complete growth media (DMEM, 10% FBS). On Day 2, cells were treated with compounds at 0.25% DMSO. The source plate was created with compounds diluted in media at 5-fold the final assay concentration. The compounds are run in a 9-point concentration curve starting at 3 μM, with a 3-fold dilution between concentrations. 20 μL was transferred onto the cell plates (final volume in wells was 100 μL). Plates were harvested after 4 hr incubation by aspirating media and adding kit-supplied 1× supplemented lysis buffer to all wells (75 μL per well). Plates were then placed on a plate shaker and incubated at 850 rpm for an additional 30 min. The antibody mixture solution was prepared by diluting aliquoted d2 and Eu Cryptate antibodies 1:20 in kit supplied detection buffer, then mixed the diluted antibodies solutions (1:1 v:v). 4 μL of this solution was then added to a 384-well detection plate (Perkin Elmer; 6008230). Samples were homogenized by pipetting up and down and then transferred (16 μL of cell lysates) from the 96-well cell culture plate to two wells of the HTRF 384-well detection plate containing the antibody solution. Plates were centrifuged (524 g for 1 min) and allowed to incubate between 4 and 24 h at room temperature. The maximum signal is reached after 4 h incubation time and remains stable over a period of 24 hours. Therefore, readings can be made between 4 and 24 h of incubation. Plates were centrifuged again (524 g for 1 m), and analyzed on the EnVision plate reader using the following settings: Excitation 320 nm, Bandwidth […]; Emission 615 nm, Bandwidth […], Gain 10000, Flashes 100, Lag 60 μs.

[2] = 3.33 μM protein target, 1:7.5 protein to compound ratio (compounds 1-852)
[3] = 1 μM protein target, 1:5 protein to compound ratio (compounds 853-1279)

C=CC(=O)N1CCn2nc(-c3nc(-c4cnn(C)c4)c4ccsc4c3-c3c(F)cc(F)cc3OCCO)cc2C1C (stereo not drawn) [Compound 532]
% of modification [1, 2]: A (percent of modification of PIK3CA protein ≥75%) | IC50 (pAKT in BT474 cells; Compounds 10-999): < 0.1 µM

C=CC(=O)N1CCn2nc(-c3nc(-c4ccc5c(cnn5CCN(C)C)c4)c4ccsc4c3-c3c(F)cc(F)cc3OCCOC)cc2C1C (stereo not drawn) [Compound 1105]
% of modification [1, 3]: A (percent of modification of PIK3CA protein ≥75%) | IC50 (pAKT in BT474 cells; Compounds 1000-1279): < 0.1 µM

C=CC(=O)N1CCc2nc(-c3nc(-c4ccc5c(c4)C(N)CC5)c4ccsc4c3-c3ccc(F)cc3OCCOC)sc2C1 (stereo not drawn) [Compound 162]
% of modification [1, 2]: A (percent of modification of PIK3CA protein ≥75%) | IC50 (pAKT in BT474 cells; Compounds 10-999): < 0.1 µM

C=CC(=O)N1CCn2nc(-c3nc(-c4ccc5nn(C)cc5c4)c4ccsc4c3-c3c(F)cc(F)cc3OC[C@@H](C)O)cc2[C@@H]1C [Compound 646]
% of modification [1, 2]: A (percent of modification of PIK3CA protein ≥75%) | IC50 (pAKT in BT474 cells; Compounds 10-999): < 0.1 µM

C=CC(=O)N1CCn2nc(-c3nc(-c4cnc(C)nc4)c4ccsc4c3-c3c(F)cc(F)cc3OCC(C)O)cc2C1C (stereo not drawn) [Compound 771]
% of modification [1, 2]: A (percent of modification of PIK3CA protein ≥75%) | IC50 (pAKT in BT474 cells; Compounds 10-999): < 0.1 µM

C=CC(=O)N1CCn2nc(-c3nc(-c4ccc5c(c4)NC(=O)C5)c4ccsc4c3-c3c(F)cc(F)cc3OCCOC)cc2C1C (stereo not drawn) [Compound 989]
% of modification [1, 3]: A (percent of modification of PIK3CA protein ≥75%) | IC50 (pAKT in BT474 cells; Compounds 10-999): < 0.1 µM

C=CC(=O)N1CC(n2nc(C)c(-c3nc(-c4ccc5c(c4)CCNC5)c4ccsc4c3-c3ccc(F)cc3OC)c2C)C1 [Compound 165]
% of modification [1, 2]: A (percent of modification of PIK3CA protein ≥75%) | IC50 (pAKT in BT474 cells; Compounds 10-999): < 0.1 µM

C=CC(=O)N1CCc2nc(-c3nc(N4CCN(C(C)C)CC4)c4ccsc4c3-c3ccc(F)cc3OCCOC)sc2C1 [Compound 140]
% of modification [1, 2]: A (percent of modification of PIK3CA protein ≥75%) | IC50 (pAKT in BT474 cells; Compounds 10-999): 0.1 to 1 µM

C=CC(=O)N1Cc2cc(-c3nc(-c4ccc5nn(C)cc5c4)c4ccsc4c3-c3c(F)cc(F)cc3OC[C@@H](C)O)nn2C[C@H]1C [Compound 754]
% of modification [1, 2]: A (percent of modification of PIK3CA protein ≥75%) | IC50 (pAKT in BT474 cells; Compounds 10-999): < 0.1 µM

C=CC(=O)N1CCn2nc(-c3nc(-c4ccc5c(c4)ncn5C)c4ccsc4c3-c3c(F)cc(F)cc3OCCO)cc2[C@H]1C [Compound 775]
% of modification [1, 2]: A (percent of modification of PIK3CA protein ≥75%) | IC50 (pAKT in BT474 cells; Compounds 10-999): < 0.1 µM

C=CC(=O)N1CCc2ccc(-c3nc(-c4ccc5c(c4)CCNC5)c4ccsc4c3-c3ccc(F)cc3OCCOC)cc21 [Compound 65]
% of modification [1, 2]: D (percent of modification <25%)

C=CC(=O)N1CCn2nc(-c3nc(-c4cnc5c(cnn5C)c4)c4ccsc4c3-c3c(F)cc(F)cc3OCCOC)cc2[C@@H]1C [Compound 888]
% of modification [1, 3]: A (percent of modification of PIK3CA protein ≥75%) | IC50 (pAKT in BT474 cells; Compounds 10-999): < 0.1 µM

C=CC(=O)N1Cc2cc(-c3nc(-c4cnc5c(c4)CN(C)C5=O)c4ccsc4c3-c3c(F)cc(F)cc3OC(C)C)nn2C[C@H]1C [Compound 513]
% of modification [1, 2]: A (percent of modification of PIK3CA protein ≥75%) | IC50 (pAKT in BT474 cells; Compounds 10-999): < 0.1 µM

C=CC(=O)N1Cc2cc(-c3nc(-c4cn(C)cn4)c4ccsc4c3-c3c(F)cc(F)cc3OCCOC)nn2[C@@H](C)C1 [Compound 509]
% of modification [1, 2]: A (percent of modification of PIK3CA protein ≥75%) | IC50 (pAKT in BT474 cells; Compounds 10-999): < 0.1 µM

CCC(=O)N1CCn2nc(-c3nc(-c4ccc5c(cnn5C)c4)c4ccsc4c3-c3c(F)cc(F)cc3OCCOC)cc2C1C (stereo not drawn) [Compound 1204]
IC50 (pAKT in BT474 cells; Compounds 1000-1279): > 1 µM

COCCOc1cc(F)ccc1-c1c(-c2ccc(OC(C)C)cc2F)nc(-c2ccc3c(c2)CCNC3)c2ccsc12 [Compound 231]
IC50 (pAKT in BT474 cells; Compounds 10-999): > 3 µM

C=CC(=O)N[C@H]1CCc2ccc(-c3nc(-c4ccc5c(c4)CCNC5)c4ccsc4c3-c3ccc(F)cc3OCCOC)cc21 [Compound 81]
% of modification [1, 2]: D (percent of modification <25%)

CC1c2cc(-c3nc(-c4ccc5c(cnn5C)c4)c4ccsc4c3-c3c(F)cc(F)cc3OCCO)nn2CCN1C(=O)C(O)CO (stereo not drawn) [Compound 1235]
IC50 (pAKT in BT474 cells; Compounds 1000-1279): > 1 µM

C=CC(=O)N1CCn2nc(-c3nc(-c4ccc5c(c4)CCN(C)C5)c4ccsc4c3-c3c(F)cc(F)cc3OC(C)C)cc2[C@@H]1C [Compound 540]
IC50 (pAKT in BT474 cells; Compounds 10-999): 1 to 3 µM

C=CC(=O)N1CCCc2ccc(-c3nc(-c4ccc5c(c4)CCNC5)c4ccsc4c3-c3ccc(F)cc3OCCOC)cc21 [Compound 66]
% of modification [1, 2]: D (percent of modification <25%)

CC1c2cc(-c3nc(-c4ccc5c(cnn5C)c4)c4ccsc4c3-c3c(F)cc(F)cc3OCCO)nn2CCN1C(=O)C(O)CO (stereo not drawn) [Compound 1236]
IC50 (pAKT in BT474 cells; Compounds 1000-1279): > 1 µM

C=CC(=O)N1CCn2nc(-c3nc(-c4ccc5c(c4)CCN(C)C5)c4ccsc4c3-c3c(F)cc(F)cc3OC(C)C)cc2[C@H]1C [Compound 542]
IC50 (pAKT in BT474 cells; Compounds 10-999): 0.1 to 1 µM

CCC(=O)N1CCn2nc(-c3nc(-c4ccc5c(c4)CCNC5=O)c4ccsc4c3-c3ccc(F)cc3OC(C)C)nc2C1 [Compound 260]
IC50 (pAKT in BT474 cells; Compounds 10-999): > 3 µM

CCC(=O)N1CCn2nc(-c3nc(-c4ccc5c(c4)CCNC5=O)c4ccsc4c3-c3ccc(F)cc3OC(C)C)cc2C1 [Compound 269]
IC50 (pAKT in BT474 cells; Compounds 10-999): 0.1 to 1 µM

C=CC(=O)N1CCn2nc(-c3nc(-c4ccc5c(c4)CCN(C)C5)c4ccsc4c3-c3c(F)cc(F)cc3OC(C)C)cc2[C@H]1C [Compound 543]
IC50 (pAKT in BT474 cells; Compounds 10-999): < 0.1 µM

COCCOc1cc(F)cc(F)c1-c1c(-c2cc3n(n2)CCN(C(=O)C(O)CO)C3C)nc(-c2ccc3c(cnn3C)c2)c2ccsc12 (stereo not drawn) [Compound 1241]
IC50 (pAKT in BT474 cells; Compounds 1000-1279): > 1 µM

C=CC(=O)N1CCCC1Cn1cc(-c2nc(-c3ccc4c(c3)CCNC4)c3ccsc3c2-c2ccc(F)cc2OCCOC)cn1 (stereo not drawn) [Compound 63]
% of modification [1, 2]: A (percent of modification of PIK3CA protein ≥75%)

CCC(=O)N1CC(n2cc(-c3nc(-c4ccc5c(c4)CCNC5)c4ccsc4c3-c3ccc(F)cc3OC)cn2)C1 [Compound 124]
IC50 (pAKT in BT474 cells; Compounds 10-999): > 3 µM

C=CC(=O)N1CCn2nc(-c3nc(-c4ccc5c(c4)CCN(C)C5)c4ccsc4c3-c3c(F)cc(F)cc3OC(C)C)cc2[C@@H]1C [Compound 541]
IC50 (pAKT in BT474 cells; Compounds 10-999): < 0.1 µM
